Measured values published in ChEMBL document CHEMBL5303573, “Mapping human microbiome drug metabolism by gut bacteria and their genes” (Nature, 2019).

Assays:
[1] = victivallis vadensis, 12 h, 2 µM
Description: The drug is tested on Victivallis vadensis strain: ATCC BAA-548 for biotransformation. The drug concentrations were measured before and after a 12-h incubation by liquid-chromatography-coupled mass spectrometry (LC–MS)

[2] = roseburia intestinalis, 12 h, 2 µM
Description: The drug is tested on Roseburia intestinalis strain: L1-82 for biotransformation. The drug concentrations were measured before and after a 12-h incubation by liquid-chromatography-coupled mass spectrometry (LC–MS)

[3] = The drug is tested on Eggerthella lenta strain: ATCC25559 for biotransformation. The drug concentrations were measured before and after a 12-h incubation by liquid-chromatography-coupled mass spectrometry (LC–MS); conditions: 2 µM
[4] = The drug is tested on Bacteroides fragilis strain: HMW610 for biotransformation. The drug concentrations were measured before and after a 12-h incubation by liquid-chromatography-coupled mass spectrometry (LC–MS); conditions: 2 µM
[5] = The drug is tested on Providencia rettgeri strain: DSM1131 for biotransformation. The drug concentrations were measured before and after a 12-h incubation by liquid-chromatography-coupled mass spectrometry (LC–MS); assay type: ADME; set-up: dose 2 uM, timepoint 0 vs 12 hours; conditions: 2 µM
[6] = The drug is tested on Bacteroides ovatus strain: ATCC8483 for biotransformation. The drug concentrations were measured before and after a 12-h incubation by liquid-chromatography-coupled mass spectrometry (LC–MS); conditions: 2 µM
[7] = bacteroides stercoris, 12 h, 2 µM
Description: The drug is tested on Bacteroides stercoris strain: ATCC43183 for biotransformation. The drug concentrations were measured before and after a 12-h incubation by liquid-chromatography-coupled mass spectrometry (LC–MS)

Measured: Bacterial Biotransformation

CN(C)CCc1c[nH]c2ccc(Cn3cncn3)cc12.O=C(O)c1ccccc1 [RIZATRIPTAN BENZOATE]
not listed: [6] | [7]
Compound NOT metabolized: all other assays above

CC(C)NCC(O)c1ccc(NS(C)(=O)=O)cc1 (stereo not drawn) [SOTALOL]
Compound metabolized: [6] | [4]
Compound NOT metabolized: all other assays above

O=C(O)CCC(=O)O.O=C(O[C@H]1CN2CCC1CC2)N1CCc2ccccc2[C@@H]1c1ccccc1 [SOLIFENACIN SUCCINATE]
Compound NOT metabolized: all assays above

CS(=O)(=O)O.O.O.O.O=C1Cc2cc(CCN3CCN(c4nsc5ccccc45)CC3)c(Cl)cc2N1 [ZIPRASIDONE MESYLATE]
Compound metabolized: [6]
Compound NOT metabolized: all other assays above

O=C(NCc1ccccc1)OCCO [BURAMATE]
Compound NOT metabolized: all assays above

C=CC[C@@H]1/C=C(\C)C[C@H](C)C[C@H](OC)[C@H]2O[C@@](O)(C(=O)C(=O)N3CCCC[C@H]3C(=O)O[C@H](/C(C)=C/[C@@H]3CC[C@@H](O)[C@H](OC)C3)[C@H](C)[C@@H](O)CC1=O)[C@H](C)C[C@@H]2OC.O [TACROLIMUS]
Compound NOT metabolized: [6]
not listed: [4]
Compound metabolized: all other assays above

CC[C@@]1(O)C(=O)OCc2c1cc1n(c2=O)Cc2cc3c(CN(C)C)c(O)ccc3nc2-1 [TOPOTECAN]
Compound NOT metabolized: all assays above

CC(CN(C)C)CN1c2ccccc2CCc2ccccc21.O=C(O)/C=C\C(=O)O (stereo not drawn) [TRIMIPRAMINE MALEATE]
Compound NOT metabolized: all assays above

CN(C/C=C/C#CC(C)(C)C)Cc1cccc2ccccc12 [TERBINAFINE]
Compound NOT metabolized: all assays above

CC(N)C12CC3CC(CC(C3)C1)C2 (stereo not drawn) [RIMANTADINE]
Compound NOT metabolized: all assays above

Cc1ccc(-c2nc3ccc(C)cn3c2CC(=O)N(C)C)cc1 [ZOLPIDEM]
not listed: [6]
Compound NOT metabolized: all other assays above

CCN(C)C(=O)Oc1cccc([C@H](C)N(C)C)c1.O=C(O)C(O)C(O)C(=O)O [RIVASTIGMINE TARTRATE]
not listed: [6]
Compound NOT metabolized: all other assays above

CS(=O)(=O)O.OC(CCN1CCCCC1)(c1ccccc1)c1ccccc1 [PRIDINOL METHANESULFONATE]
Compound NOT metabolized: all assays above

C#C[C@]1(OC(C)=O)CC[C@H]2[C@@H]3CCC4=C[C@@H](OC(C)=O)CC[C@@H]4[C@H]3CC[C@@]21C [ETHYNODIOL DIACETATE]
not listed: [4]
Compound NOT metabolized: all other assays above

CN1[C@@H]2CC[C@H]1C[C@@H](OC(=O)c1c[nH]c3ccccc13)C2 [TROPISETRON]
Compound NOT metabolized: all assays above

CC(=O)CC(c1ccccc1)c1c(O)c2ccccc2oc1=O (stereo not drawn) [WARFARIN]
not listed: [4]
Compound NOT metabolized: all other assays above

CCCN(CCC)CCc1cccc2c1CC(=O)N2 [ROPINIROLE]
Compound NOT metabolized: all assays above

CCCCc1nc(Cl)c(CO)n1Cc1ccc(-c2ccccc2-c2nn[nH]n2)cc1 [LOSARTAN]
Compound metabolized: [4]
Compound NOT metabolized: [6] | [1] | [3] | [5]

COc1ccc(CN2CCNCC2)c(OC)c1OC.Cl.Cl [TRIMETAZIDINE DIHYDROCHLORIDE]
Compound NOT metabolized: [1] | [2] | [3]
Compound metabolized: [6] | [7] | [5]
